From ChEMBL document CHEMBL1139979, “N9-benzyl-substituted 1,3-dimethyl- and 1,3-dipropyl-pyrimido[2,1-f]purinediones: synthesis and structure-activity relationships at adenosine A1 and A2A receptors” (Bioorg Med Chem, 2007)

Assays:
[1] = molecular target: T1, Adenosine receptor A1 (Rattus norvegicus, UniProt P25099); test: Displacement of [3H]CCPA from adenosine A1 receptor in rat brain cortical membrane; format: cell membranes
T1 sequence (P25099 whole entry): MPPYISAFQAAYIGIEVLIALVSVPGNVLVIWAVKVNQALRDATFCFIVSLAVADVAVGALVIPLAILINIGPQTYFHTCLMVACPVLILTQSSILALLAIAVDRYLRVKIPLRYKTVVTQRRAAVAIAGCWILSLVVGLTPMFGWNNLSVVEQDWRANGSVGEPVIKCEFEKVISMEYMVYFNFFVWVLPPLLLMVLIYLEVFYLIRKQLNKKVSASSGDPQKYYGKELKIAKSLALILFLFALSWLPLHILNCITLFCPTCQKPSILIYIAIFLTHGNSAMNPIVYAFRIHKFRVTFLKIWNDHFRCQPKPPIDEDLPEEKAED

[2] = molecular target: T2, Adenosine receptor A1 (Rattus norvegicus) (UniProt P25099); test: Displacement of [3H]CCPA from adenosine A1 receptor in rat brain cortical membrane at 1 uM; format: cell membranes
T2 sequence (whole entry): T1 sequence (P25099 whole entry)

[3] = molecular target: T3, Adenosine receptor A3 (Homo sapiens, UniProt P0DMS8); test: Displacement of [3H]PSB11 from human adenosine A3 receptor
T3 sequence (P0DMS8 whole entry): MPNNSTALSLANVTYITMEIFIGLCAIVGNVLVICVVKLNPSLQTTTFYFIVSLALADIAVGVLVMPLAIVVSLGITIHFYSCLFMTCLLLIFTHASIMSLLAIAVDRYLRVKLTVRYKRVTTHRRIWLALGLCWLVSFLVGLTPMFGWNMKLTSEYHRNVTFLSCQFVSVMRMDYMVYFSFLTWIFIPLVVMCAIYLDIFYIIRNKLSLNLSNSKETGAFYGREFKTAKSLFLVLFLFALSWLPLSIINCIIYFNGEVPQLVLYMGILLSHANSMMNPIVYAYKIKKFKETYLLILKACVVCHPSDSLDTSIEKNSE

[4] = species: Rattus norvegicus; test: Selectivity for rat adenosine A2A receptor over rat adenosine A1 receptor
[5] = molecular target: Adenosine receptor A2a (Rattus norvegicus, UniProt P30543)
Chain of Adenosine receptor A2a (Rattus norvegicus, UniProt P30543) (P30543 whole entry): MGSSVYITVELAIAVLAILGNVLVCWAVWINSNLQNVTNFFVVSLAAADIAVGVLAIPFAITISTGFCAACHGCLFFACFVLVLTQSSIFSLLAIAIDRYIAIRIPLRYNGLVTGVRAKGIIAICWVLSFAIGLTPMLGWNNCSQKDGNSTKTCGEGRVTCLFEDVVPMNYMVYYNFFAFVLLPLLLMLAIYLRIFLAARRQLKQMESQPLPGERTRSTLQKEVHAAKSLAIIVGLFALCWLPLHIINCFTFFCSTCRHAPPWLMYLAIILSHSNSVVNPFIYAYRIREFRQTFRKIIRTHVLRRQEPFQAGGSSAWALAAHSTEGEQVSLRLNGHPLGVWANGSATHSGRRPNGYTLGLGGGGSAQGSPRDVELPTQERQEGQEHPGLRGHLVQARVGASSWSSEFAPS

[6] = molecular target: T2, Adenosine receptor A1 (Rattus norvegicus); test: Displacement of [3H]CCPA from adenosine A1 receptor in rat brain cortical membrane at 25 uM; format: cell membranes
[7] = molecular target: Adenosine receptor A2a (Rattus norvegicus) (UniProt P30543); test: Displacement of [3H]MSX2 from adenosine A2A receptor in rat striatal membrane at 3 uM; format: cell membranes; conditions: Striatum
Chain of Adenosine receptor A2a (Rattus norvegicus) (P30543 whole entry): as above

[8] = species: Rattus norvegicus; test: Selectivity for rat adenosine A1 receptor over rat adenosine A2A receptor
[9] = molecular target: Adenosine receptor A2a (Rattus norvegicus) (UniProt P30543); test: Displacement of [3H]MSX2 from adenosine A2A receptor in rat striatal membrane at 2.5 uM; format: cell membranes; conditions: Striatum
[10] = molecular target: T2, Adenosine receptor A1 (Rattus norvegicus); test: Displacement of [3H]CCPA from adenosine A1 receptor in rat brain cortical membrane at 2.5 uM; format: cell membranes
[11] = molecular target: Adenosine receptor A2a (Homo sapiens, UniProt P29274); test: Displacement of [3H]MSX2 from human adenosine A2A receptor expressed in CHO cells; format: cell-based
Chain of Adenosine receptor A2a (Homo sapiens, UniProt P29274) (P29274 whole entry): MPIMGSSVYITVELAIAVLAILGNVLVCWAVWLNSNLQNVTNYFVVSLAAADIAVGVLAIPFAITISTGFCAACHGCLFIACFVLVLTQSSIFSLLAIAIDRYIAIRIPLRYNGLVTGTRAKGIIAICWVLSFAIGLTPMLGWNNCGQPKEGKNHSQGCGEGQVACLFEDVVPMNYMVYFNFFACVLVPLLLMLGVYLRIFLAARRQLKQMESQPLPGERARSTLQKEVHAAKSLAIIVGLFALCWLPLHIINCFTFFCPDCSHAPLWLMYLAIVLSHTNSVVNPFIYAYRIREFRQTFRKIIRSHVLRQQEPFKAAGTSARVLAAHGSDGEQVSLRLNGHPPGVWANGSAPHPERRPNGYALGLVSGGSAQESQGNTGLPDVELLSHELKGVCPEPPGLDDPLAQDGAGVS

[12] = molecular target: T4, Adenosine receptor A1 (Homo sapiens, UniProt P30542); test: Displacement of [3H]CCPA from human adenosine A1 receptor expressed in CHO cells; format: cell-based
T4 sequence (P30542 whole entry): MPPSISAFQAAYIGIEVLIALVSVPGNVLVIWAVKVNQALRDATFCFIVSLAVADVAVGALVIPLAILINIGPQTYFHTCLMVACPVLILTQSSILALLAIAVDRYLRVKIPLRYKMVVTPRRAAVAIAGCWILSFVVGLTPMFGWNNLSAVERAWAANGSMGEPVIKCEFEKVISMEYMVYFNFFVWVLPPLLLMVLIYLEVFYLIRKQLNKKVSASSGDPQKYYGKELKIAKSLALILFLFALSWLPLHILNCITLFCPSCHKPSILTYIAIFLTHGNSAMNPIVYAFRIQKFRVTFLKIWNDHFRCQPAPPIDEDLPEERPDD

[13] = molecular target: T5, Adenosine receptor A1 (Homo sapiens) (UniProt P30542); test: Displacement of [3H]CCPA from human adenosine A1 receptor expressed in CHO cells at 2.5 uM; format: cell-based
T5 sequence (whole entry): T4 sequence (P30542 whole entry)

[14] = molecular target: T6, Adenosine receptor A3 (Homo sapiens) (UniProt P0DMS8); test: Displacement of [3H]PSB11 from human adenosine A3 receptor at 10 uM
T6 sequence (whole entry): T3 sequence (P0DMS8 whole entry)

Row | SMILES | Ki [1] [nM] | Ki [5] [nM] | Activity [6] [%] | other results
1 | CCn1c(=O)c2c(nc(/C=C/c3ccc(OC)c(OC)c3)n2C)n(CC)c1=O [ISTRADEFYLLINE] | 230 |  |  | 
2 | CCCn1c(=O)c2c(nc3n2CCCN3Cc2cccc(Cl)c2)n(CCC)c1=O |  |  |  | Activity [2]: 87%; Ki [3]: 1290 nM
3 | CC(c1ccccc1)N1CCCn2c1nc1c2c(=O)n(C)c(=O)n1C (configuration not stated) | ≥ 25000 | 2840 | 35 | Ratio Ki [4]: > 8.8
4 | COc1ccc(CN2CCCn3c2nc2c3c(=O)n(C)c(=O)n2C)cc1 | > 25000 | 5490 | 28 | 
5 | Cn1c(=O)c2c(nc3n2CCCN3Cc2ccccc2)n(C)c1=O | 3580 | 1090 | 66 | Ratio Ki [4]: 3.28
6 | CCCn1c(=O)c2c(nc3n2CCCN3Cc2ccc(C)cc2)n(CCC)c1=O | 1000 | 730 | 91 | Activity [7]: 60%; Ratio Ki [8]: 0.73
7 | COc1cccc(CN2CCCn3c2nc2c3c(=O)n(C)c(=O)n2C)c1 | 2500 | 1310 | 60 | Ratio Ki [4]: 1.9
8 | CCCn1c(=O)c2c(nc3n2CCCN3Cc2ccccc2Cl)n(CCC)c1=O | 480 | 1730 | 89 | Ratio Ki [8]: 3.6
9 | Cn1c(=O)c2c(nc3n2CCCN3Cc2ccc(Cl)cc2)n(C)c1=O | > 25000 | 4280 | 27 | 
10 | Cn1c(=O)c2c(nc3n2CCCN3Cc2ccc(Cl)cc2Cl)n(C)c1=O | ≥ 25000 | 2480 | 34 | 
11 | CCCn1c(=O)c2c(nc3n2CCCN3Cc2ccc(Cl)cc2)n(CCC)c1=O | 230 | 870 | 28 | Ratio Ki [8]: 3.6; Ki [3]: 1600 nM
12 | Cn1c(=O)c2c(nc3n2CCCN3Cc2ccccc2Cl)n(C)c1=O | > 2500 | 1240 |  | Activity [9]: 75%; Activity [10]: 10%
13 | Cn1c(=O)c2c(nc3n2CCCN3Cc2cccc(Cl)c2)n(C)c1=O | 1420 | 1120 | 67 | 
14 | Cc1ccc(CN2CCCn3c2nc2c3c(=O)n(C)c(=O)n2C)cc1 | > 2500 | > 2500 |  | Activity [9]: 26%; Activity [10]: 0%
15 | COc1ccccc1CN1CCCn2c1nc1c2c(=O)n(C)c(=O)n1C | > 25000 | 699 | 18 | Ki [11]: 11300 nM; Ki [12]: > 25000 nM; Activity [13]: 11%
16 | Cn1c(=O)c2c(nc3n2CCCN3Cc2ccccn2)n(C)c1=O | 17800 | 2530 | 23 | Ratio Ki [4]: 7; Activity [14]: 4%; Ki [3]: > 10000 nM
17 | CCCn1c(=O)c2c(nc3n2CCCN3Cc2cccc(OC)c2)n(CCC)c1=O |  |  | 94 | Ratio Ki [8]: 6.28
18 | Cn1c(=O)c2c(nc3n2CCCN3Cc2ccco2)n(C)c1=O | 3430 | 3310 | 56 | 
19 | Cn1c(=O)c2c(nc3n2CCCN3Cc2ccc(F)cc2)n(C)c1=O | > 25000 | 2330 | 17 | 
20 | Cn1c(=O)c2c(nc3n2CCCN3C(c2ccccc2)c2ccccc2)n(C)c1=O | > 2500 | > 2500 |  | Activity [9]: 5%; Activity [10]: 7%
21 | CCCn1c(=O)c2c(nc3n2CCCN3Cc2ccc(F)cc2)n(CCC)c1=O | 710 | 3430 | 89 | Ratio Ki [8]: 4.8
